PubChem BioAssay AID328 (DTP/NCI, 2004)
Values joined by “and” are separate entries in the source; they are usually repeats but may differ in a detail not shown here. Equal values may be shown once. Toxic doses and inconclusive results are not listed.

Test system: BDF1 mice, P388 leukemia ip, median survival T/C
Experiment: NCI In Vivo Anticancer Drug Screen. Data for tumor model P388 Leukemia (intraperitoneal) in B6D2F1 (BDF1) mice
Conditions: endpoint: median survival time, higher = longer survival
Procedure, shortened: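 Antitumour effect was judged in vivo: survival in drug-treated mice, normalised to that of vehicle-dosed controls, gives the reported T/C.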

[1] = dose: 100.0 mg/kg/injection, schedule: Q01DX009 (ip), vehicle: saline with Tween-80
[2] = dose: 200.0 mg/kg/injection, schedule: Q01DX009 (ip), vehicle: saline with Tween-80
[3] = dose: 400.0 mg/kg/injection, schedule: Q01DX009 (ip), vehicle: saline with Tween-80
[4] = dose: 100.0 mg/kg/injection, schedule: Q04DX003 (ip), vehicle: Klucel (hydroxypropylcellulose) (HPC)
[5] = dose: 200.0 mg/kg/injection, schedule: Q04DX003 (ip), vehicle: Klucel (hydroxypropylcellulose) (HPC)
[6] = dose: 400.0 mg/kg/injection, schedule: Q04DX003 (ip), vehicle: Klucel (hydroxypropylcellulose) (HPC)
[7] = dose: 200.0 mg/kg/injection, schedule: Q01DX009 (ip), vehicle: Klucel (hydroxypropylcellulose) (HPC)
[8] = dose: 50.0 mg/kg/injection, schedule: Q01DX009 (ip), vehicle: saline
[9] = dose: 100.0 mg/kg/injection, schedule: Q01DX009 (ip), vehicle: saline
[10] = dose: 200.0 mg/kg/injection, schedule: Q01DX009 (ip), vehicle: saline
[11] = dose: 25.0 mg/kg/injection, schedule: Q01DX009 (ip), vehicle: saline
[12] = dose: 50.0 mg/kg/injection, schedule: Q01DX009 (ip), vehicle: saline with Tween-80
[13] = dose: 100.0 mg/kg/injection, schedule: Q01DX001 (ip), vehicle: Klucel (hydroxypropylcellulose) (HPC)
[14] = dose: 200.0 mg/kg/injection, schedule: Q01DX001 (ip), vehicle: Klucel (hydroxypropylcellulose) (HPC)
[15] = dose: 400.0 mg/kg/injection, schedule: Q01DX001 (ip), vehicle: Klucel (hydroxypropylcellulose) (HPC)
[16] = dose: 6.25 mg/kg/injection, schedule: Q01DX009 (ip), vehicle: saline
[17] = dose: 12.5 mg/kg/injection, schedule: Q01DX009 (ip), vehicle: saline
[18] = dose: 100.0 mg/kg/injection, schedule: Q01DX009 (ip), vehicle: Klucel (hydroxypropylcellulose) (HPC)
[19] = dose: 400.0 mg/kg/injection, schedule: Q01DX009 (ip), vehicle: Klucel (hydroxypropylcellulose) (HPC)
[20] = dose: 100.0 mg/kg/injection, schedule: Q04DX003 (ip), vehicle: saline with Tween-80
[21] = dose: 200.0 mg/kg/injection, schedule: Q04DX003 (ip), vehicle: saline with Tween-80
[22] = dose: 400.0 mg/kg/injection, schedule: Q04DX003 (ip), vehicle: saline with Tween-80

SMILES: CC(C)=CCC1=C(O)c2ccccc2C(=O)C1=O
- T/C (dose: 25.0 mg/kg/injection, schedule: Q#A X018 (oral), vehicle: other): 100 % of control
- T/C (dose: 50.0 mg/kg/injection, schedule: Q01DX010 (ip), vehicle: other): 104 % of control
- T/C (dose: 50.0 mg/kg/injection, schedule: Q01DX010 (ip), vehicle: water): 118 % of control
- T/C (dose: 50.0 mg/kg/injection, schedule: Q#A X018 (oral), vehicle: other): 100 % of control
- T/C (dose: 50.0 mg/kg/injection, schedule: Q#A X020 (ip), vehicle: other): 100 % of control
- T/C (dose: 75.0 mg/kg/injection, schedule: Q01DX010 (ip), vehicle: water): 100 % of control and 109 % of control
- T/C (dose: 100.0 mg/kg/injection, schedule: Q01DX010 (ip), vehicle: other): 118 % of control
- T/C (dose: 100.0 mg/kg/injection, schedule: Q#A X018 (oral), vehicle: other): 100 % of control
- T/C (dose: 100.0 mg/kg/injection, schedule: Q#A X020 (ip), vehicle: other): 90 % of control
- T/C (dose: 125.0 mg/kg/injection, schedule: Q01DX010 (ip), vehicle: water): 95 % of control
- T/C (dose: 150.0 mg/kg/injection, schedule: Q01DX010 (ip), vehicle: water): 90 % of control and 104 % of control
- T/C (dose: 150.0 mg/kg/injection, schedule: Q#A X018 (ip), vehicle: other): 100 % of control
- T/C (dose: 150.0 mg/kg/injection, schedule: Q#A X020 (ip), vehicle: other): 120 % of control

SMILES: CC(C)Oc1ccc2c(c1)Sc1ccc(Cl)cc1N2
- T/C [1]: 104 % of control
- T/C [2]: 104 % of control
- T/C [3]: 104 % of control

SMILES: ClC(Cl)(Cl)C1OCOC(C(Cl)(Cl)Cl)OCO1 (stereo not drawn)
- T/C [4]: 90 % of control
- T/C [5]: 100 % of control
- T/C [6]: 90 % of control

SMILES: CC(=O)OC(CC(O)(C(F)(F)F)C(F)(F)F)C(C)(C)C (stereo not drawn)
- T/C (dose: 12.5 mg/kg/injection, schedule: Q04DX003 (ip), vehicle: saline with Tween-80): 90 % of control
- T/C (dose: 25.0 mg/kg/injection, schedule: Q04DX003 (ip), vehicle: saline with Tween-80): 90 % of control
- T/C (dose: 50.0 mg/kg/injection, schedule: Q04DX003 (ip), vehicle: saline with Tween-80): 90 % of control

SMILES: COc1cc(C)c(C2NC(=O)c3ccccc3N2)cc1C (stereo not drawn)
- T/C [7]: 155 % of control and 170 % of control
- T/C (dose: 265.0 mg/kg/injection, schedule: Q01DX009 (ip), vehicle: Klucel (hydroxypropylcellulose) (HPC)): 150 % of control

SMILES: CCOC(=O)/C(C#N)=C1\CCc2cc(OC)ccc21
- T/C (dose: 100.0 mg/kg/injection, schedule: Q01DX001 (ip), vehicle: saline with Tween-80): 92 % of control
- T/C (dose: 200.0 mg/kg/injection, schedule: Q01DX001 (ip), vehicle: saline with Tween-80): 88 % of control
- T/C (dose: 400.0 mg/kg/injection, schedule: Q01DX001 (ip), vehicle: saline with Tween-80): 88 % of control

SMILES: O=S(=O)(Oc1ccccc1)C(F)(F)C(F)(F)C(F)(F)C(F)(F)F
- T/C [8]: 109 % of control
- T/C [9]: 106 % of control
- T/C [10]: 109 % of control

SMILES: CC(=O)CC(C)(C)N
- T/C [11]: 95 % of control
- T/C [8]: 104 % of control

SMILES: COC(=O)/C(N=Nc1cccc(C)c1)=C(\C)O
- T/C [12]: 97 % of control
- T/C [1]: 103 % of control

SMILES: C=C(CCCCC)C(=O)/C=C/c1ccc(Cl)cc1
- T/C [13]: 109 % of control
- T/C [14]: 109 % of control
- T/C [15]: 118 % of control

SMILES: Sc1ccccc1-n1c(-c2ccccc2)ccc1-c1ccccc1
- T/C [12]: 101 % of control
- T/C [1]: 88 % of control
- T/C [2]: 87 % of control
- T/C [3]: 102 % of control

SMILES: CCn1cnc2c(SC3CCCC3)ncnc21
- T/C (dose: 100.0 mg/kg/injection, schedule: Q04DX003 (ip), vehicle: saline sonified): 100 % of control
- T/C (dose: 200.0 mg/kg/injection, schedule: Q04DX003 (ip), vehicle: saline sonified): 100 % of control
- T/C (dose: 400.0 mg/kg/injection, schedule: Q04DX003 (ip), vehicle: saline sonified): 100 % of control

SMILES: O=C(NC(=O)c1c(F)cccc1F)Nc1ccc(Br)cc1
- T/C [12]: 101 % of control
- T/C [1]: 100 % of control
- T/C [2]: 96 % of control

SMILES: CCCCCC(CN(C)C)C(O)/C=C\c1ccccc1 (stereo not drawn)
- T/C (dose: 3.13 mg/kg/injection, schedule: Q01DX009 (ip), vehicle: saline): 100 % of control
- T/C [16]: 117 % of control
- T/C [17]: 119 % of control
- T/C [8]: 104 % of control
- T/C [9]: 99 % of control

SMILES: C=Cn1ccc(=O)[nH]c1=O (tested in a mixture with another compound)
- T/C [12]: 86 % of control
- T/C [1]: 121 % of control
- T/C [2]: 93 % of control

SMILES: COc1cc2c(cc1OC)C(=O)CN(S(=O)(=O)c1ccc(C)cc1)CC2
- T/C [11]: 95 % of control
- T/C [8]: 104 % of control
- T/C [9]: 104 % of control
- T/C [4]: 100 % of control
- T/C [5]: 95 % of control
- T/C [6]: 95 % of control

SMILES: COc1ccc(OC)c(C(=O)CCCC(=O)O)c1
- T/C [13]: 100 % of control
- T/C [18]: 90 % of control
- T/C [4]: 100 % of control
- T/C [14]: 104 % of control
- T/C [7]: 90 % of control
- T/C [5]: 91 % of control
- T/C [15]: 95 % of control
- T/C [19]: 95 % of control
- T/C [6]: 87 % of control

SMILES: CCCCSCC(N)C(=O)O (stereo not drawn)
- T/C [18]: 116 % of control
- T/C [4]: 104 % of control
- T/C [7]: 121 % of control
- T/C [5]: 104 % of control
- T/C [19]: 111 % of control
- T/C [6]: 95 % of control

SMILES: COC(=O)C(c1ccccc1)C(Br)C(=O)c1ccccc1 (stereo not drawn)
- T/C [4]: 100 % of control
- T/C [7]: 88 % of control
- T/C [5]: 104 % of control
- T/C [6]: 90 % of control

SMILES: CC(C)=CCC/C(C)=C/COC(=O)Cc1ccccc1
- T/C [1]: 104 % of control
- T/C [20]: 100 % of control
- T/C [2]: 109 % of control
- T/C [21]: 105 % of control
- T/C [3]: 118 % of control
- T/C [22]: 122 % of control

SMILES: CCCC#CCOCC1CO1 (stereo not drawn)
- T/C [1]: 116 % of control
- T/C [20]: 100 % of control
- T/C [2]: 120 % of control
- T/C [21]: 100 % of control
- T/C [22]: 95 % of control

SMILES: Nc1nc2nc(N=Nc3ccc(Br)cc3)[nH]c2c(=O)[nH]1
- T/C (dose: 50.0 mg/kg/injection, schedule: Q01DX005 (ip), vehicle: saline with Tween-80): 98 % of control
- T/C (dose: 100.0 mg/kg/injection, schedule: Q01DX005 (ip), vehicle: saline with Tween-80): 97 % of control
- T/C (dose: 200.0 mg/kg/injection, schedule: Q01DX005 (ip), vehicle: saline with Tween-80): 100 % of control

SMILES: CC(=O)Nc1ccn(CC(=O)c2cccs2)c(=O)n1
- T/C [9]: 90 % of control
- T/C (dose: 100.0 mg/kg/injection, schedule: Q04DX003 (ip), vehicle: saline): 86 % of control
- T/C [10]: 95 % of control
- T/C (dose: 200.0 mg/kg/injection, schedule: Q04DX003 (ip), vehicle: saline): 86 % of control
- T/C (dose: 400.0 mg/kg/injection, schedule: Q01DX009 (ip), vehicle: saline): 90 % of control
- T/C (dose: 400.0 mg/kg/injection, schedule: Q04DX003 (ip), vehicle: saline): 100 % of control

SMILES: Cc1cccc(C(=O)Cc2cccc(C#N)c2)c1
- T/C [12]: 113 % of control
- T/C [1]: 99 % of control
- T/C [2]: 96 % of control

SMILES: CCOC(=O)NC1=C(N2CC2)C(=O)C(NC(=O)OCC)=C(N2CC2)C1=O
- T/C (dose: 0.78 mg/kg/injection, schedule: Q01DX009 (ip), vehicle: saline): 199 % of control and 211 % of control and 212 % of control
- T/C (dose: 1.56 mg/kg/injection, schedule: Q01DX009 (ip), vehicle: saline): 235 % of control and 238 % of control and 212 % of control
- T/C (dose: 3.12 mg/kg/injection, schedule: Q01DX009 (ip), vehicle: saline): 100 % of control

SMILES: OCCN1CCN(CC/C=C2\c3ccccc3Sc3ccc(Cl)cc32)CC1
- T/C [16]: 114 % of control
- T/C [17]: 114 % of control
